# Data from PMC11267533, “Ligandability at the Membrane Interface of GPx4 Revealed through a Reverse Micelle Fragment Screening Platform” (JACS Au, 2024).
# Where “and” joins values, the source holds several entries; their conditions need not be identical. Equal values may be shown once. Read-outs that look alike come from different tables or passages of the source.
# Legend:
# [1] = target: T1, GPx4 embedded in a mmRM (membrane-bound GPx4) (Homo sapiens, UniProt P36969, U73G); test: NMR (15N-HSQC) titration of fragments against GPx4 embedded in DLPC/DPC mmRM, apparent Kd; assay type: binding; details: ± standard error of global Kd fit
# T1 construct: Truncated U46G-GPx4 with a TEV cleavable poly-histidine tag was inserted into vector; poly-histidine tag with TEV cleavage site; host or cells: BL21 (DE3) E. coli
# T1 sequence (P36969 1-170 isoform P36969-2 U46G): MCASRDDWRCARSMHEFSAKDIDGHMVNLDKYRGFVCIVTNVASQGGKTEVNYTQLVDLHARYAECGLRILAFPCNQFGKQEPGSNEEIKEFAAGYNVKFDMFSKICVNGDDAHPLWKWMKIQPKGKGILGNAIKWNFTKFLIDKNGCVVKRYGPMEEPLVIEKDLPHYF
# Description: To assess whether the fragment hits are bound specifically to GPx4 and to calculate affinity, we performed NMR-based titrations. Chemical shift changes that approach saturation in a structurally localized manner target indicate specific binding.[24] This allows true positive hits to be separated from false positives and weak or nonspecific binders. Additionally, NMR-based titrations allow for the extraction of a binding affinity (Kd). To calculate apparent Kd values, CSP cutoffs were used to isolate the resonances with most shifting using 1 standard deviation above the average CSP. All 14 fragments identified from the deconvolutions were titrated up to 400 μM or 1 mM if needed. Of the 14, 9 had apparent Kds less than 1 mM and were identified as hits. Observed here is a 0.47% hit rate with best affinities in the μM range for the membrane-bound form of GPx4 and is consistent with ligandable and potentially druggable targets.[14],[57] […] The remaining five fragments, 10–14, were ruled out as weaker (>∼1 mM) or nonspecific binders. Weak or nonspecific binding could indicate that fragments partitioning to the mmRM surface and perturb the protein spectrum through a simple change in the chemical environment at the interface, among other possible nonspecific effects. […] We note that the weaker and nonspecific fragments were only eliminated due to interaction modes that are too weak or unproductive for advancement toward inhibitors; yet, binding was nevertheless detected. […] We note here that apparent Kd values reported in this study account for a total amount of fragment and protein within the mmRM sample and are not corrected for any potential concentrating effect due to localization of fragment to the mmRM surface or water phase.
# NMR samples were prepared with ^15N-isotopically labeled protein with 10% v/v of d-pentane as the lock solvent (Sigma-Aldrich, St. Louis, MO). All NMR spectra were collected at 25 °C on a 700 MHz Bruker Avance III instrument. All NMR spectra were processed using NMRPipe[66] and analyzed using NMRFAM-Sparky.[67] Chemical shifts for GPx4 (BMRB 50955) were assigned from those previously published.[52] Chemical shift perturbations from ^15N-HSQC spectra were calculated using the following formula [drawing 1] where Δ^1H and Δ^15N are the changes in ^1H and ^15N chemical shifts, respectively.
# The 14 fragments isolated from deconvolutions were purchased from Life Chemicals (fragments 1, 4, 6, and 11, and 12–14), Combi-Blocks (2, 3, 5, 9, and 10), or ChemBridge Hit2Lead (7 and 8). All fragment 1 and 5 analogues were also purchased from ChemBridge Hit2Lead. Fragments and analogues purchased from Life Chemicals and Hit2Lead are 90+% pure, while the fragments purchased from Combi-Blocks ranged from 95 to 97% pure. The day prior to the titration, a double-volume sample of encapsulated GPx4 was made before being split up into two separate vials. Half of the sample was added to the vial containing predried fragment corresponding to 400 μM or 1 mM. […] If they were, then the two samples were mixed to produce varying concentrations and to measure a titration curve. The top-shifting resonances were determined by calculating the average CSP at 400 μM or 1 mM and 1 and 2 standard deviations (σ) above that average. The CSP for the resonance at each fragment concentration was extracted and fit to a curve using an affinity equation that accounts for ligand depletion [drawing 2]
# Any resonance producing a curve with an R^2 below 0.85 was removed, and the remaining resonances were then used to fit a global apparent Kd curve for the fragment hit. Standard error for Kd from the global fit of all of the selected residues is reported.
# [2] = target: T2, aqueous (water-solubilized) GPx4 (Homo sapiens, UniProt P36969, U73G); test: 15N-HSQC CSP binding experiment with GPx4 in bulk aqueous conditions; details: for Binding to aqueous GPx4 (CSPs versus mmRM): 400 μM fragment, 100 μM GPx4, 1% DMSO; for Binding to aqueous GPx4 (CSPs): 15 mM fragment, 100 μM GPx4, 5% DMSO
# T2 construct: Truncated U46G-GPx4 with a TEV cleavable poly-histidine tag was inserted into vector; poly-histidine tag with TEV cleavage site; host or cells: BL21 (DE3) E. coli
# T2 sequence (P36969 1-170 isoform P36969-2 U46G): T1 sequence (P36969 1-170 isoform P36969-2 U46G)
# Experimental: Next, we sought to understand whether fragment hits were solely bound to the membrane-embedded form of GPx4 or could also bind to the aqueous form. We performed aqueous binding experiments with 3 fragment hits with varying hydrophobicities. Of the fragment hits with Kd < 1 mM, the most hydrophobic fragment (fragment 5, cLog D 2.05, 5-hydroxy-1,3-benzoxathiol-2-one) and a hydrophilic fragment with the strongest affinity (fragment 6, cLog D −2.14, (2-methoxyethyl)(4-pyridinylmethyl)amine hydrochloride) were selected, along with a compound with an amphipathic structure and only modest hydrophobicity (fragment 1, cLog D 1.05, 4-(phenylamino)-1,2-dihydropyridin-2-one). Aqueous GPx4 was combined with 400 μM of either fragments 1, 5, or 6 to directly compare to the mmRM experiments. […] Since our fragments have variable degrees of solubility and partitioning, we realized that a hydrophilic fragment like 6 may partition into the water core of the mmRM, essentially causing a concentration effect as observed previously.[32],[33] To rule this out, the concentration of the fragments was increased to 15 mM in an aqueous sample, which would be the effective concentration if all of the fragments partitioned completely into the RM water core. […] DLS measurements were also collected to check for fragment aggregation in the aqueous conditions.[58] […] Inspection of ^1H NMR spectra confirmed that the aggregation observed at high concentration of fragments 1 and 5 is a small portion of the overall fragment concentration and that most of the fragment is in solution.
# Fragments 1, 5, and 6 were selected to perform proof-of-concept experiments in bulk aqueous conditions. 400 μM and 15 mM aliquots of fragment were vacuum-dried overnight to remove excess DMSO. An apo GPx4 reference was collected with 1% DMSO or 5% DMSO to ensure that CSP calculations took into account DMSO needed for fragment solubilization. 100 μM GPx4 was added to the dried fragments, and DMSO was added to a total of 1% for the 400 μM and 5% for the 15 mM fragment experiments. These percentages were the lowest amounts needed to solubilize the fragments in solution. Prior to experimentation, the pH of the sample was checked to ensure that no change was observed upon the addition of the fragments. However, the 100 mM Bis-Tris at pH 6.0 ensured that the pH was not altered. ^15N-HSQC experiments were collected, and CSPs were analyzed and compared to the top-shifting resonances determined from the mmRM experiments. DLS measurements were collected to assess fragment aggregation in the aqueous conditions using a Malvern Zetasizer Nano-S instrument.
# [3] = Table 2, analogues of fragment 5, GPx4 in mmRM, read-out: Apparent Kd
# [4] = Table 1, GPx4 in DLPC/DPC mmRM, NMR titration up to 400 μM or 1 mM, read-out: Kd (apparent)
"Kd [1, 3]","CSPs of aqueous GPx4 ([2]; 400 μM analogue, 1.5% DMSO)","Kd [1, 4]",Binding to aqueous GPx4 (CSPs) [2],Compound,Binding to aqueous GPx4 (CSPs versus mmRM) [2]
~30 µM and 30 µM,little to no shifting,–,–,O=c1oc2c(-c3ccc(Cl)c(Cl)c3)cc(O)cc2s1 [Analog 5.5],–
–,–,105 ± 30 µM,neither produced significant CSPs,"O=c1cc(Nc2ccccc2)cc[nH]1 [Fragment 1, 4-(phenylamino)-1,2-dihydropyridin-2-one]",do not bind strongly to the aqueous form of the protein
–,–,230 ± 60 µM,neither produced significant CSPs,"COCCNCc1ccncc1.Cl [Fragment 6, (2-methoxyethyl)(4-pyridinylmethyl)amine hydrochloride]",do not bind strongly to the aqueous form of the protein

Compound,"Kd [1, 3]","CSPs of aqueous GPx4 ([2]; 400 μM analogue, 1.5% DMSO)","Kd [1, 4]",Binding to aqueous GPx4 (CSPs) [2],Binding to aqueous GPx4 (CSPs versus mmRM) [2]
"O=c1oc2ccc(O)cc2s1 [Fragment 5, 5-hydroxy-1,3-benzoxathiol-2-one]",220 ± 90 µM,–,220 ± 90 µM,does produce some CSPs that could be detected by a soluble screen,do not bind strongly to the aqueous form of the protein
